Measured values as given in PMC5540946, “Stress-Driven Discovery of Novel Cryptic Antibiotics from a Marine Fungus Penicillium sp. BB1122” (Frontiers in Microbiology, 2017).
Values after ≈ are worked out from the molar mass of the structure shown. Where two headings read alike, the source gives them in different places.

Legend:
Type in all cases: cell-based
[1] = test system: methicillin resistant Staphylococcus aureus (MRSA); experiment: Broth dilution antibacterial assay (MIC, MBC by subculture) against MRSA; details: for MIC: 18 h
Description: (§1) The conventional broth dilution assay was used to evaluate the antibacterial activities. Three clinical pathogens namely MRSA, P. aeruginosa [CMCC(B)10104], and K. pneumoniae [CMCC(B)46117] were cultured and left overnight to grow. Each pathogenic culture was then diluted in 0.9% saline to an inoculum density of 5 × 10^5 cfu by comparison with a McFarland standard. Tetracycline was dissolved in Mueller–Hinton broth with a starting concentration of 512 μg/mL and was used as positive control whereas methanol was used as negative control. A total of 125 μL of MHB was distributed into the 96-well plates. A total of 125 μL of the different samples were dispensed into well 1 and serially diluted across the plate. Ultimately, addition of 125 μL of the bacterial inoculum was performed and the plates were incubated at 37°C for 18 h. The bacteriostatic abilities of the compounds were noted as MICs which were done in triplicate. Five milligrams per milliliter of methanolic solution of 3-[4,5-dimethylthiazol-2-yl]-2,5-diphenyltetrazolium bromide (MTT; Lancaster) was used to detect bacterial growth by a change in color from yellow to blue ([Appendino et al., 2008]).
(§2) Ten microliters of broth with no visible growth were taken from the wells and sub-cultured on nutrient agar plates. The negative control consisted of nutrient agar and the inoculum which was then compared with the number of colonies on the agar. The bactericidal abilities of the compounds were noted as MBCs which was equal to the lowest concentration of the samples which killed 99.9% of the original inoculum ([Clinical and Laboratory Standards Institute, 2014]).

[2] = test system: P. aeruginosa [CMCC(B)10104]; experiment: Broth dilution antibacterial assay (MIC, MBC by subculture) against P. aeruginosa; details: Pseudomonas aeruginosa; for MIC: 18 h, broth dilution, 37°C, triplicate; for MBC: lowest concentration killing 99.9% of original inoculum
Description: as §1, §2

[3] = test system: K. pneumoniae [CMCC(B)46117]; experiment: Broth dilution antibacterial assay (MIC, MBC by subculture) against K. pneumoniae; details: Klebsiella pneumoniae
Description: as §1, §2

[4] = test system: Human liver cell line LO2; experiment: Cytotoxicity assay (MTT); details: normal liver cell line LO2, MTT, triplicate
Description: Human liver cell line LO2 was obtained from the Institute of Biochemistry and Cell Biology (Chinese Academy of Sciences). LO2 cells were maintained in RPMI 1640 containing 10% fetal bovine serum (FBS), 100 units/mL penicillin and 100 units/mL streptomycin. All the cells were grown in a humidified cell incubator with an atmosphere of 5% CO2 at 37°C and subcultured with 0.25% trypsin + 0.02% EDTA. MTT, dimethyl sulfoxide (DMSO), ribonuclease (RNase), propidium iodide (PI), Annexin V-FITC/PI kit were obtained from Sigma. RPMI 1640, DMEM, FBS were purchased from Gibco. Hoechst, trypsin, and the pan caspase inhibitor z-VAD-FMK were obtained from Beyotime Institute of Biotechnology. Compounds were dissolved in DMSO and diluted to the proper concentrations before use, with the concentration of DMSO kept below 0.1% in all assays. Cell viability was measured by the MTT method as previously described, with some modifications ([Jiang et al., 2013]). Briefly, cells were seeded in 96-well microtiter plates at a density of 5 × 10^3 cells/well for 24 h. After drug treatment for the indicated times, cells were incubated with MTT (0.5 mg/mL) for 4 h. The formazan precipitate was dissolved in 150 μL DMSO, and the absorbance was detected at 490 nm with a Sunrise microplate reader (Tecan Group Ltd.). DMSO (0.1%) was used as negative control for all assays. Each test was performed in triplicate.

[5] = broth dilution, 37°C, 18 h, triplicate
[6] = lowest concentration killing 99.9% of original inoculum, read-out: MBC
[7] = lowest concentration killing 99.9% of original inoculum

Row | SMILES | MBC ([1]; Staphylococcus aureus) | MIC ([1]; Staphylococcus aureus) | MIC ([2]; read-out: MIC) | MBC ([2]; read-out: MBC) | MIC [3, 5] | MBC [3, 6] | MBC [1, 7] | MIC [2] | MBC [2] | MBC [3, 7] | MIC [3] | MBC ([3]; read-out: MBC) | IC50 ([4]; Homo sapiens, read-out: IC50) | IC50 [4] | MIC ([1]; broth dilution, 37°C, triplicate)
1 | COc1cc(=O)oc(C=CC=CC=CC(C)=CC2(C)OC(C)C(C)(O)C2O)c1C (stereo not shown) [Compound 1, Neocitreoviridin] | 128 µg/mL (≈ 318 µM) | 64 µg/mL (≈ 159 µM) | 4 µg/mL (≈ 9.94 µM) | 8 µg/mL (≈ 19.9 µM) | 64 µg/mL (≈ 159 µM) | 128 µg/mL (≈ 318 µM) | – | – | – | – | – | – | – | – | –
2 | COc1cc(=O)oc(C=CC=CC=CC(C)=CC2(C)OC(C)C(C)(O)C2O)c1C (stereo not shown) [Compound 2, citreoviridin] | – | – | – | – | – | – | 128 µg/mL (≈ 318 µM) | 8 µg/mL (≈ 19.9 µM) | 16 µg/mL (≈ 39.8 µM) | 128 µg/mL (≈ 318 µM) | – | – | – | – | –
3 | COc1cc(=O)oc(/C=C/C=C/C=C/[C@@]2(C)O[C@]3(C)[C@@H](O)[C@@](C)(O[C@@H]3C)[C@@H]2O)c1C [Compound 3, epicitreoviridinol] | 2 µg/mL (≈ 4.78 µM) | 1 µg/mL (≈ 2.39 µM) | 64 µg/mL (≈ 153 µM) | 128 µg/mL (≈ 306 µM) | – | – | – | – | – | – | > 128 µg/mL | > 128 µg/mL | – | – | –
4 | COc1cc(=O)oc(/C=C/C=C/C=C/[C@@]2(C)O[C@@]3(C)[C@H](O)[C@](C)(O[C@H]3C)[C@@H]2O)c1C [Compound 4, epiisocitreoviridinol] | 128 µg/mL (≈ 306 µM) | 64 µg/mL (≈ 153 µM) | 64 µg/mL (≈ 153 µM) | 128 µg/mL (≈ 306 µM) | – | – | – | – | – | – | > 128 µg/mL | > 128 µg/mL | – | – | –
5 | COc1cc(=O)oc(C=CC=CC=CC2(C)OC3(C)C(C)OC(C)(C2O)C3O)c1C (stereo not shown) [Compound 5, 10Z-isocitreoviridinol] | 2 µg/mL (≈ 4.78 µM) | 1 µg/mL (≈ 2.39 µM) | 8 µg/mL (≈ 19.1 µM) | 16 µg/mL (≈ 38.2 µM) | 64 µg/mL (≈ 153 µM) | 128 µg/mL (≈ 306 µM) | – | – | – | – | – | – | – | – | –
6 | COc1cc(=O)oc(/C=C/C=C/C=C/[C@@]2(C)O[C@]3(C)[C@@H](O)[C@@](C)(O[C@@H]3C)[C@H]2O)c1C [Compound 6, citreoviridinol] | 8 µg/mL (≈ 19.1 µM) | 4 µg/mL (≈ 9.56 µM) | 64 µg/mL (≈ 153 µM) | 128 µg/mL (≈ 306 µM) | – | – | – | – | – | – | > 128 µg/mL | > 128 µg/mL | – | – | –
7 | COc1cc(=O)oc(C(O)C=CC=CC=C(C)C2OC3(C)C(C)OC2(C)C3O)c1C (stereo not shown) [Compound 7, Penicillstressol] | 1 µg/mL (≈ 2.39 µM) | 0.5 µg/mL (≈ 1.19 µM) | 4 µg/mL (≈ 9.56 µM) | 8 µg/mL (≈ 19.1 µM) | 64 µg/mL (≈ 153 µM) | 128 µg/mL (≈ 306 µM) | – | – | – | – | – | – | > 100 µg/mL | – | –
8 | COc1cc(=O)oc(C(O)C=CC=CC=C(C)C2OC3(C)C(C)OC2(C)C3O)c1C (stereo not shown) [Compound 8, Isopenicillstressol] | – | – | – | – | – | – | 1 µg/mL (≈ 2.39 µM) | – | 8 µg/mL (≈ 19.1 µM) | 128 µg/mL (≈ 306 µM) | – | – | – | above 100 μg/mL | –
9 | CN(C)[C@@H]1C(O)=C(C(N)=O)C(=O)[C@@]2(O)C(O)=C3C(=O)c4c(O)cccc4[C@@](C)(O)[C@H]3C[C@@H]12 [Tetracycline, reference compound] | 4 µg/mL (≈ 9 µM) | 2 µg/mL (≈ 4.5 µM) | 8 µg/mL (≈ 18 µM) | 16 µg/mL (≈ 36 µM) | 64 µg/mL (≈ 144 µM) | 128 µg/mL (≈ 288 µM) | – | – | – | – | – | – | – | – | around 2 µg/mL
